Experimental findings from article PMC6934184, “Selective DNA-PKcs inhibition extends the therapeutic index of localized radiotherapy and chemotherapy” (The Journal of Clinical Investigation, 2019) are described below.

In the assay the target is T1, STK38 (NDR) (Homo sapiens, UniProt Q15208).
T1 construct: purchased Thermo Fisher Scientific (Life Technologies) SelectScreen
Nature of the assay: SelectScreen LanthaScreen. To be noted: read-out: % displacement. It counts as binding. In a few lines:
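NU5455 was profiled across the SelectScreen Broad panel of kinase activity and binding assays. Z'LYTE reactions such as CSF1R ran at apparent Km ATP, while the Adapta CAMK1 assay used ATP listed as 10. Values are given as percent.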
(Time-resolved FRET reads energy transfer from a long-lived donor to a nearby acceptor.)

Each structure is given as a SMILES string.

T1 sequence (Q15208 whole entry): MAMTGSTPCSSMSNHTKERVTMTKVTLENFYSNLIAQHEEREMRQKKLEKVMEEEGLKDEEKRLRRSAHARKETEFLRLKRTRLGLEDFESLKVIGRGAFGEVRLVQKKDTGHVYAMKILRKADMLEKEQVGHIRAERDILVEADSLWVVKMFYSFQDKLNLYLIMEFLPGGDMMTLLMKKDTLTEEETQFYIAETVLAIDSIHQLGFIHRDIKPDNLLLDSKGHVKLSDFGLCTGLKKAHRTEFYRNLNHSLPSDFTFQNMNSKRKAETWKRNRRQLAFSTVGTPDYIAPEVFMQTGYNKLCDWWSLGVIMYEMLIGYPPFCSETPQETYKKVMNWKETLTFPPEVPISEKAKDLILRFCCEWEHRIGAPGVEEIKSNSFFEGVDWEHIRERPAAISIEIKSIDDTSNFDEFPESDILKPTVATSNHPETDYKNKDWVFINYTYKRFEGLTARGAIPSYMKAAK

In the case of `CN(C(=O)CN1CCOCC1)c1ccc2sc3c(-c4cccc5c(=O)cc(N6CC7CCC(C6)O7)oc45)cccc3c2c1` [NU5455], the inhibition at 1 µM is -5.9%.
